Assay results: ChEMBL document CHEMBL5113400, “Design, synthesis, and biological evaluation of trizole-based heteroaromatic derivatives as Bcr-Abl kinase inhibitors” (Eur J Med Chem, 2022)

Assays:
K562/Adr [1] = assay: Antiproliferative activity against human Adriamycin-resistant K562/Adr cells assessed as inhibition of cell growth at 30 uM incubated for 48 hrs by MTT assay; type: functional
BaF3 [2] = assay: Antiproliferative activity against mouse BaF3 cells expressing Bcr-Abl T315I mutant assessed as inhibition of cell growth at 30 uM incubated for 72 hrs by CellTiter-Glo luminescent assay; type: functional
Bcr/Abl fusion protein [3] = target: Bcr/Abl fusion protein (Homo sapiens, UniProt P00519); assay: Inhibition of wild type Bcr-Abl (unknown origin) incubated for 1 hr in presence of ATP by ADP-Glo kinase assay; type: protein assay
Bcr/Abl fusion protein [4] = target: Bcr/Abl fusion protein (Homo sapiens, UniProt P00519, T315I); assay: Inhibition of Bcr-Abl T315I mutant (unknown origin) incubated for 1 hr in presence of ATP by ADP-Glo kinase assay; type: protein assay
K562 = assay: Antiproliferative activity against human K562 cells assessed as inhibition of cell growth incubated for 48 hrs by MTT assay; type: functional, cell-based; details: K562, 48 h
K562/Adr [5] = assay: Antiproliferative activity against human Adriamycin-resistant K562/Adr cells assessed as inhibition of cell growth incubated for 48 hrs by MTT assay; type: functional, cell-based
BaF3 [6] = assay: Antiproliferative activity against mouse BaF3 cells expressing wild type Bcr-Abl assessed as inhibition of cell growth incubated for 72 hrs by CellTiter-Glo luminescent assay; type: functional, cell-based; details: BaF3, 72 h
K-562R = assay: Antiproliferative activity against human K-562R cells expressing Bcr-Abl T315I mutant assessed as inhibition of cell growth incubated for 48 hrs by MTT assay; type: functional, cell-based
BaF3 [7] = assay: Antiproliferative activity against mouse BaF3 cells assessed as inhibition of cell growth incubated for 72 hrs by CellTiter-Glo luminescent assay; type: functional, cell-based; details: BaF3, 72 h

Compound	inhibition at 30 µM (K562/Adr [1]) [%]	inhibition at 30 µM (BaF3 [2]) [%]	IC50 (Bcr/Abl fusion protein [3]) [nM]	IC50 (Bcr/Abl fusion protein [4]) [nM]	IC50 (K562) [µM]	IC50 (K562/Adr [5]) [µM]	IC50 (BaF3 [6]) [nM]	IC50 (K-562R) [µM]	IC50 (BaF3 [7]) [µM]
O=C(Nc1ccc(-c2cn([C@@H]3CN[C@H](C(=O)Nc4ccc(Cl)c(C(F)(F)F)c4)C3)nn2)cn1)C1CC1	44.3	36.4	0.65	338	8.77	–	–	–	–
Nc1n[nH]c2cc(-c3cn([C@@H]4CN[C@H](C(=O)Nc5ccc(Br)cc5)C4)nn3)ccc12	26.8	–	43.6	310	10.3	–	–	–	–
CC(=O)Nc1n[nH]c2cc(-c3cn([C@@H]4CN[C@H](C(=O)Nc5ccc(Cl)c(C(F)(F)F)c5)C4)nn3)ccc12	23.4	21.8	28.2	121	15.5	–	–	–	–
O=C(Nc1n[nH]c2cc(-c3cn([C@@H]4CN[C@H](C(=O)Nc5ccc(Br)cc5)C4)nn3)ccc12)C1CC1	39.6	20	5.53	144	8.08	–	–	–	–
CC(C)(C)OC(=O)N1C[C@@H](n2cc(-c3ccc4nc(N)sc4n3)nn2)C[C@H]1C(=O)Nc1ccc(Cl)c(C(F)(F)F)c1	27.4	52.3	10.6	667	10.8	–	–	–	–
CC(=O)Nc1n[nH]c2cc(-c3cn([C@@H]4CN[C@H](C(=O)Nc5ccc(Cl)cc5Cl)C4)nn3)ccc12	–	25.5	3.15	135	2.09	1.23	–	–	–
Nc1n[nH]c2cc(-c3cn([C@@H]4CN[C@H](C(=O)Nc5ccc(Cl)c(C(F)(F)F)c5)C4)nn3)ccc12	48.2	31.2	15	137	8.32	–	–	–	–
Cc1ccc(NC(=O)c2ccc(CN3CCN(C)CC3)cc2)cc1Nc1nccc(-c2cccnc2)n1 [IMATINIB]	–	–	–	–	1.1	13.5	230	93	10
CC(C)(C)OC(=O)N1C[C@@H](n2cc(-c3ccc4c(N)n[nH]c4c3)nn2)C[C@H]1C(=O)Nc1ccc(Br)cc1	23	20.1	50	237	3.71	–	–	–	–
CCN(CC)C(=O)c1cncc(-c2cn([C@@H]3CN[C@H](C(=O)Nc4ccc(Cl)c(C(F)(F)F)c4)C3)nn2)c1	32.4	–	14.5	261	27.6	–	–	–	–
O=C(Nc1n[nH]c2cc(-c3cn([C@@H]4CN[C@H](C(=O)Nc5ccc(Cl)cc5Cl)C4)nn3)ccc12)C1CC1	43.3	27.6	0.83	200	5.34	–	–	–	–
O=C(Nc1nc2ccc(-c3cn([C@@H]4CN[C@H](C(=O)Nc5ccc(Br)cc5)C4)nn3)nc2s1)C1CC1	–	66.5	10.4	33.3	8.16	48.2	–	–	–
CC(=O)Nc1nc2ccc(-c3cn([C@@H]4CN[C@H](C(=O)Nc5ccc(F)c(F)c5)C4)nn3)nc2s1	38.4	–	202	1890	63	–	–	–	–
CCN1CCN(c2cc(NC(=O)[C@@H]3C[C@H](n4cc(-c5ccc6c(N)n[nH]c6c5)nn4)CN3)ccc2Cl)CC1	–	20	8.71	84.8	0.18	12.6	–	–	–
CC(C)(C)OC(=O)N1C[C@@H](n2cc(-c3ccc(N)nc3)nn2)C[C@H]1C(=O)Nc1ccc(Cl)c(C(F)(F)F)c1	48.6	66.7	0.94	125	4.71	–	–	–	–
CC(=O)Nc1nc2ccc(-c3cn([C@@H]4CN[C@H](C(=O)Nc5ccc(Br)cc5)C4)nn3)nc2s1	32	40	6.99	169	5.02	–	–	–	–
Cc1ccc(C(=O)Nc2ccc(CN3CCN(C)CC3)c(C(F)(F)F)c2)cc1C#Cc1cnc2cccnn12 [PONATINIB]	–	–	–	–	–	–	–	0.08	–
Nc1ccc(-c2cn([C@@H]3CN[C@H](C(=O)Nc4ccc(Cl)c(C(F)(F)F)c4)C3)nn2)cn1	–	27.9	3.11	303	10.4	25.2	–	–	–
CC(C)(C)OC(=O)N1C[C@@H](n2cc(-c3ccc4nc(N)sc4n3)nn2)C[C@H]1C(=O)Nc1ccc(Br)cc1	31.7	–	6.88	25.2	29.2	–	–	–	–
CC(C)(C)OC(=O)N1C[C@@H](n2cc(-c3ccc4c(N)n[nH]c4c3)nn2)C[C@H]1C(=O)Nc1ccc(Cl)c(C(F)(F)F)c1	37.1	53.8	21.9	150	10.5	–	–	–	–
